Reference: ChEMBL document CHEMBL1201862, “PubChem BioAssay data set” (2004)
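A five-concentration, 48-hour dose response in 96-well plates underlies each endpoint, interpolated linearly between surrounding concentrations. At the GI50, growth is halved.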 Activity calls are given as the source filed them. No stated cut-off is given here; in the data, active = GI50 up to about 1.1 µM and inactive = higher.

Tests used:
Assay in all cases: NCI-60 cell line screen, 48 h
CAKI-1 = tested on: CAKI-1
UO-31 = tested on: UO-31
OVCAR-4 = tested on: OVCAR-4
SNB-19 = tested on: SNB-19
K562 = tested on: K562
U-251 = tested on: U-251
NCI-H460 = tested on: NCI-H460
T47D = tested on: T47D
SF-539 = tested on: SF-539
Malme-3M = tested on: Malme-3M
SK-MEL-5 = tested on: SK-MEL-5
EKVX = tested on: EKVX
OVCAR-5 = tested on: OVCAR-5
MDA-MB-231 = tested on: MDA-MB-231
TK-10 = tested on: TK-10
MOLT-4 = tested on: MOLT-4
A498 = tested on: A498
HOP-62 = tested on: HOP-62
M14 = tested on: M14
IGROV-1 = tested on: IGROV-1
UACC-62 = tested on: UACC-62
HL-60 = tested on: HL-60
786-0 = tested on: 786-0
KM12 = tested on: KM12
SN12C = tested on: SN12C
NCI-H23 = tested on: NCI-H23
MCF7 = tested on: MCF7
COLO 205 = tested on: COLO 205
NCI/ADR-RES = tested on: NCI/ADR-RES
Hs-578T = tested on: Hs-578T
SF-268 = tested on: SF-268
OVCAR-8 = tested on: OVCAR-8
NCI-H226 = tested on: NCI-H226
HT-29 = tested on: HT-29
OVCAR-3 = tested on: OVCAR-3
ACHN = tested on: ACHN
SW-620 = tested on: SW-620
HCT-15 = tested on: HCT-15
A549 = tested on: A549
HCT-116 = tested on: HCT-116
HCC 2998 = tested on: HCC 2998
DU-145 = tested on: DU-145
SK-OV-3 = tested on: SK-OV-3
PC-3 = tested on: PC-3
SF-295 = tested on: SF-295
UACC-257 = tested on: UACC-257
NCI-H522 = tested on: NCI-H522
SNB-75 = tested on: SNB-75
BT-549 = tested on: BT-549
CCRF-CEM = tested on: CCRF-CEM
MDA-N = tested on: MDA-N
SK-MEL-28 = tested on: SK-MEL-28
SK-MEL-2 = tested on: SK-MEL-2
RXF 393 = tested on: RXF 393
LOX IMVI = tested on: LOX IMVI
MDA-MB-435 = tested on: MDA-MB-435
HOP-92 = tested on: HOP-92
RPMI-8226 = tested on: RPMI-8226
SR = tested on: SR

COC(=O)c1c(O)c2c(c3c1OC(C)(C)CC3)OC(C)(C)CC2
GI50 (CAKI-1): 21.8 µM (inactive)
GI50 (UO-31): 18.8 µM (inactive)
GI50 (OVCAR-4): 32.2 µM (inactive)
GI50 (SNB-19): 18.2 µM (inactive)
GI50 (K562): 25.1 µM (inactive)
GI50 (U-251): 15.2 µM (inactive)
GI50 (NCI-H460): 22.3 µM (inactive)
GI50 (T47D): 21.8 µM (inactive)
GI50 (SF-539): 18 µM (inactive)
GI50 (Malme-3M): 0.824 µM (active)
GI50 (SK-MEL-5): 15 µM (inactive)
GI50 (EKVX): 21.2 µM (inactive)
GI50 (OVCAR-5): 18.4 µM (inactive)
GI50 (MDA-MB-231): 13.7 µM (inactive)
GI50 (TK-10): > 10 µM (inactive)
GI50 (MOLT-4): 22.7 µM (inactive)
GI50 (A498): 18.7 µM (inactive)
GI50 (HOP-62): 21 µM (inactive)
GI50 (M14): 19.1 µM (inactive)
GI50 (IGROV-1): 19.6 µM (inactive)
GI50 (UACC-62): 18.9 µM (inactive)
GI50 (HL-60): 15.1 µM (inactive)
GI50 (786-0): 16.8 µM (inactive)
GI50 (KM12): 16.9 µM (inactive)
GI50 (SN12C): 16 µM (inactive)
GI50 (NCI-H23): 20.1 µM (inactive)
GI50 (MCF7): 18.2 µM (inactive)
GI50 (COLO 205): 15 µM (inactive)
GI50 (NCI/ADR-RES): 22.1 µM (inactive)
GI50 (Hs-578T): 20.8 µM (inactive)
GI50 (SF-268): 22.9 µM (inactive)
GI50 (OVCAR-8): 17.6 µM (inactive)
GI50 (NCI-H226): 19.3 µM (inactive)
GI50 (HT-29): 16.7 µM (inactive)
GI50 (OVCAR-3): 20 µM (inactive)
GI50 (ACHN): 18 µM (inactive)
GI50 (SW-620): 17.5 µM (inactive)
GI50 (HCT-15): 21.2 µM
GI50 (A549): 20.5 µM (inactive)
GI50 (HCT-116): 16.8 µM (inactive)
GI50 (HCC 2998): 16.4 µM (inactive)
GI50 (DU-145): 24.5 µM (inactive)
GI50 (SK-OV-3): 27.3 µM (inactive)
GI50 (PC-3): 17 µM (inactive)
GI50 (SF-295): 17 µM (inactive)
GI50 (UACC-257): 20.4 µM (inactive)
GI50 (NCI-H522): 15.8 µM (inactive)
GI50 (SNB-75): > 10 µM (inactive)
GI50 (BT-549): 20 µM (inactive)
GI50 (CCRF-CEM): 23 µM (inactive)
GI50 (MDA-N): 22.1 µM (inactive)
GI50 (SK-MEL-28): 26.6 µM (inactive)

CC1(C)CNCC(C)(OCc2ccccc2)C(=O)NC(C)(C)CNCC(C)(OCc2ccccc2)C(=O)N1 (stereo not given)
GI50 (UO-31): 6 µM (inactive)
GI50 (SNB-19): > 10 µM (inactive)
GI50 (K562): > 10 µM (inactive)
GI50 (U-251): > 10 µM (inactive)
GI50 (NCI-H460): > 10 µM (inactive)
GI50 (T47D): > 10 µM (inactive)
GI50 (SF-539): > 10 µM (inactive)
GI50 (Malme-3M): > 10 µM (inactive)
GI50 (SK-MEL-5): > 10 µM (inactive)
GI50 (EKVX): > 10 µM (inactive)
GI50 (OVCAR-5): > 10 µM (inactive)
GI50 (MDA-MB-231): > 10 µM (inactive)
GI50 (TK-10): > 10 µM (inactive)
GI50 (MOLT-4): > 10 µM (inactive)
GI50 (A498): > 10 µM (inactive)
GI50 (SK-MEL-2): > 10 µM (inactive)
GI50 (HOP-62): > 10 µM (inactive)
GI50 (RXF 393): 3.78 µM (inactive)
GI50 (M14): > 10 µM (inactive)
GI50 (IGROV-1): > 10 µM (inactive)
GI50 (UACC-62): > 10 µM (inactive)
GI50 (786-0): > 10 µM (inactive)
GI50 (KM12): > 10 µM (inactive)
GI50 (SN12C): > 10 µM (inactive)
GI50 (NCI-H23): > 10 µM (inactive)
GI50 (MCF7): > 10 µM (inactive)
GI50 (Hs-578T): 5.09 µM (inactive)
GI50 (SF-268): > 10 µM (inactive)
GI50 (OVCAR-8): > 10 µM (inactive)
GI50 (NCI-H226): > 10 µM (inactive)
GI50 (OVCAR-3): > 10 µM (inactive)
GI50 (ACHN): > 10 µM (inactive)
GI50 (SW-620): > 10 µM (inactive)
GI50 (HCT-15): > 10 µM
GI50 (A549): > 10 µM (inactive)
GI50 (HCT-116): 8.99 µM (inactive)
GI50 (HCC 2998): > 10 µM (inactive)
GI50 (DU-145): > 10 µM (inactive)
GI50 (SK-OV-3): > 10 µM (inactive)
GI50 (PC-3): > 10 µM (inactive)
GI50 (SF-295): > 10 µM (inactive)
GI50 (LOX IMVI): > 10 µM (inactive)
GI50 (UACC-257): > 10 µM (inactive)
GI50 (SNB-75): 6.27 µM (inactive)
GI50 (MDA-MB-435): > 10 µM (inactive)
GI50 (BT-549): > 10 µM (inactive)
GI50 (CCRF-CEM): > 10 µM (inactive)
GI50 (MDA-N): > 10 µM (inactive)
GI50 (SK-MEL-28): > 10 µM (inactive)
GI50 (HOP-92): 0.385 µM (active)

COc1c2c(cc3c1-c1c(cc4c(c1OC)OCO4)C1OC3C(C)C1C)OCO2.COc1cc2c(c(OC)c1OC)-c1c(cc3c(c1OC)OCO3)C1OC2C(C)C1C (stereo not given)
GI50 (CAKI-1): > 100 µM (inactive)
GI50 (UO-31): 94.8 µM (inactive)
GI50 (OVCAR-4): > 100 µM (inactive)
GI50 (SNB-19): > 100 µM (inactive)
GI50 (K562): 72.8 µM (inactive)
GI50 (RPMI-8226): 33 µM (inactive)
GI50 (U-251): > 100 µM (inactive)
GI50 (NCI-H460): 55.3 µM (inactive)
GI50 (SR): > 100 µM (inactive)
GI50 (T47D): 26.1 µM (inactive)
GI50 (SF-539): > 100 µM (inactive)
GI50 (Malme-3M): > 100 µM (inactive)
GI50 (SK-MEL-5): 78 µM (inactive)
GI50 (EKVX): 87.3 µM (inactive)
GI50 (OVCAR-5): > 100 µM (inactive)
GI50 (MDA-MB-231): 8 µM (inactive)
GI50 (TK-10): > 100 µM (inactive)
GI50 (MOLT-4): 22.3 µM (inactive)
GI50 (A498): > 100 µM (inactive)
GI50 (SK-MEL-2): > 100 µM (inactive)
GI50 (HOP-62): > 100 µM (inactive)
GI50 (RXF 393): > 100 µM (inactive)
GI50 (M14): > 100 µM (inactive)
GI50 (IGROV-1): 70.6 µM (inactive)
GI50 (UACC-62): 73.8 µM (inactive)
GI50 (HL-60): 28.9 µM (inactive)
GI50 (786-0): > 100 µM (inactive)
GI50 (KM12): 95.1 µM (inactive)
GI50 (SN12C): > 100 µM (inactive)
GI50 (NCI-H23): > 100 µM (inactive)
GI50 (MCF7): > 100 µM (inactive)
GI50 (COLO 205): > 100 µM (inactive)
GI50 (Hs-578T): > 100 µM (inactive)
GI50 (SF-268): > 100 µM (inactive)
GI50 (OVCAR-8): 57 µM (inactive)
GI50 (NCI-H226): > 100 µM (inactive)
GI50 (HT-29): 88.7 µM (inactive)
GI50 (OVCAR-3): 84.5 µM (inactive)
GI50 (ACHN): > 100 µM (inactive)
GI50 (SW-620): > 100 µM (inactive)
GI50 (HCT-15): 67.9 µM
GI50 (A549): 97.5 µM (inactive)
GI50 (HCT-116): 87.3 µM (inactive)
GI50 (HCC 2998): 56.4 µM (inactive)
GI50 (DU-145): 91.8 µM (inactive)
GI50 (SK-OV-3): > 100 µM (inactive)
GI50 (PC-3): 37.8 µM (inactive)
GI50 (SF-295): 87.1 µM (inactive)
GI50 (LOX IMVI): 68.4 µM (inactive)
GI50 (UACC-257): 73.1 µM (inactive)
GI50 (NCI-H522): 61.4 µM (inactive)
GI50 (SNB-75): 33 µM (inactive)
GI50 (MDA-MB-435): > 100 µM (inactive)
GI50 (BT-549): 61.2 µM (inactive)
GI50 (CCRF-CEM): 40.4 µM (inactive)
GI50 (MDA-N): > 100 µM (inactive)
GI50 (SK-MEL-28): > 100 µM (inactive)
GI50 (HOP-92): > 100 µM (inactive)
